For one experiment, the system named is Scenedesmus WC-1. The conditions noted are these: for total Nile Red fluorescence reached: began to increase at 5 d; for Dry Weight (DCW) / Final Cell Density / Final Total Nile Red Fluorescence / Final Specific Nile Red Intensity Cell-1: WC-1, 5% CO2 → Air; for Dry Weight (DCW) / Final Cell Density / Final Total Nile Red Fluorescence: n = 3; for Final Specific Nile Red Intensity Cell-1: fluorescence signal/cell density × 10,000. How it is done:
Cultures were grown with 5% CO2 until nitrate depletion was imminent.
(§1) Scenedesmus sp. strain WC-1 (WC-1) was isolated and confirmed unialgal as previously described (Gardner et al. 2010). WC-1 was cultured on Bold's basal medium with pH adjusted to 8.7 with KOH previous to autoclaving (Nichols and Bold 1965). Phaeodactylum tricornutum strain Pt-1 (CCMP 2561) (Pt-1) was acquired from The Provasoli-Guillard National Center for Culture of Marine Phytoplankton (CCMP). Pt-1 was cultured on ASP II medium and 50 mM Tris buffer (Sigma-Aldrich, St. Louis Mo.), pKa 7.8 (Provasoli et al. 1957). Both organisms were checked for bacterial contamination by inoculation into respective medium supplemented with 0.05% yeast extract and 0.05% glucose and incubated in the dark. Experiments were conducted in triplicate in batch culture using 70 mm×500 mm glass tubes containing 1 L media submersed in a water bath to control temperature. Rubber stoppers, containing ports for aeration and sampling, were used to seal the tubes. Temperature was maintained at 24° C. and 20° C., ±1° C., for WC-1 and Pt-1, respectively. Light (400 μmoles m^−2s^−1) was maintained on a 14:10 light:dark cycle by a T5 light bank. Aeration (400 mL min^−1) was supplied by humidified compressed air with and without 5% CO2 (v/v) and controlled using individual rotameters on each bioreactor (Cole-Parmer, Vernon Hills Ill.).
(§2) Cell concentrations were determined using an optical hemacytometer with a minimum of 400 cells counted for statistical reliability. Light micrographs and Nile Red fluorescence images were taken using a transmitted/epifluorescence light microscope (Nikon Eclipse E800) with an Infinity 2 color camera.
Medium pH was measured on samples using a standard bench top pH meter. Nitrate in Bolds basal medium was measured by ion chromatography (IC) using an IonPac AS9-HC Anion-Exchange Column (Dionex) with a 9.0 mM sodium carbonate buffer set at a flow rate of 1.0 mL min^−1. Detection was performed using a CD20 conductivity detector (Dionex) at 21° C., and IC data was analyzed on Dionex PeakNet 5.2 software. Nitrate in ASP II medium was measured using a colorimetric assay based on the reaction of Czechrome NAS reagent (Polysciences Inc., Warrington Pa.) with nitrate ions. In brief, 1 mL of culture was centrifuged at 16,000 g for 15 minutes. The supernatant liquid was then collected for nitrate quantification. 0.1 mL of sample was gently mixed with 1 mL of reagent solution prepared as described by the manufacturer (Polysciences Inc., Warrington Pa.), and incubated 20 minutes at room temperature. The absorbance was read at 570 nm, and nitrate concentration of the sample was calculated using a nitrate standard curve.
(§3) Cellular TAG accumulation was estimated using the Nile Red (9-diethylamino-5H-benzo(α)phenoxazine-5-one) (Sigma-Aldrich, St. Louis Mo.) fluorescence method (Cooksey et al. 1987). TAG accumulation over time was measured by removing 1 mL aliquots from cultures and assayed directly with Nile Red (4 μL from […] in acetone) or by diluting with 4 mL ultrapure H2O or salt water for WC-1 and Pt-1, respectively, before assaying directly with Nile Red (20 μL from […] in acetone). To maintain linearity of the Nile Red assay, dilution was required when population counts exceeded 1×10^7 cell mL^−1 and 3×10^6 cell mL^−1 for WC-1 and Pt-1, respectively. Total Nile Red fluorescence was quantified on a microplate reader (Bio-Tek, Winooski, Vt.) utilizing 480/580 nm excitation/emission filters.

A further experiment concerns diatom RGd-1. The note with it: bicarbonate spike at 7.4 d, within 2-3 d of the spike, ambient air, 14:10 light-dark. The source says: RGd-1 was obtained from Yellowstone National Park under Permit No. YELL-2009-SCI-5480. These cultures were illuminated with 14:10 light-dark cycling with ambient air aeration.
A further experiment concerns Coelastrella sp. PC-3. On the procedure:
The addition of 50 mM NaHCO3 prior to nitrate depletion was tested on Coelastrella sp. PC-3.

The subject of another experiment is Kirchneriella sp. 92. The note with it: 50 mM NaHCO3 prior to nitrate depletion. How it is done: (§4) The addition of 50 mM NaHCO3 prior to nitrate depletion was tested on Chlorophytes Scenedesmus sp.
For the next experiment, the system named is Scenedesmus sp. 131. The conditions noted are these: 50 mM NaHCO3 prior to nitrate depletion. How it is done: as §4
Experiment [1] has as its system Phaeodactylum tricornutum Pt-1. On the procedure: The diatom was cultured in ASP II medium, with or without adding NaHCO3 under 14:10 L:D cycle at […] A non-limiting example of ASP II medium is shown below:
as §1, §2
as §3, with “filters. […] To minimize fluorescence spillover, black walled 96-well plates were loaded with 200 μL of sample. Unstained samples were used for background medium and cellular autofluorescence correction. […]” for “filters.”

For another experiment, the system named is Chlorophyta sp. EN-2. The note with it: 50 mM NaHCO3 prior to nitrate depletion. How it is done: The addition of 50 mM NaHCO3 prior to nitrate depletion was tested on Chlorophyta sp. EN-2.
Setting [2] is: HCO3 addition at 3.7 d (pre-nitrate depletion), harvest 8.0 d.
[3] abbreviates: HCO3 addition at 6.4 d (post-nitrate depletion), harvest 12.0 d.

“And” between values parts separate entries of the source, which are not always exact repeats. Equal values may be shown once. Read-outs that look alike come from different tables or passages of the source.

As for `O=C([O-])[O-].[Na+].[Na+]` [Na2CO3, sodium carbonate, reference compound], the TAG accumulation result in the experiment with Scenedesmus WC-1 (all cases of Na2CO3 addition (individual, mix, buffered), near nitrate depletion) is “did not accumulate elevated levels of TAG”.

Turning to `O=C([O-])O.[Na+]` [bicarbonate, sodium bicarbonate], the TAG induction entry in the experiment on Scenedesmus WC-1 (25 mM NaHCO3 with 25 mM CAPS buffer (pKa 10.3), near nitrate depletion) was “almost identical to the unbuffered additions”. For the same molecule, the “period of TAG accumulation” value with Scenedesmus WC-1 (50 mM bicarbonate added at 3.7 d (pre-nitrate depletion)) lay within 5 to 8 days. For the same molecule, in the experiment on Scenedesmus WC-1 (50 mM bicarbonate added at 6.4 d, post-nitrate depletion), the “Nile Red fluorescence after decrease to baseline” value came out at 450 units. Further, the “Nile Red fluorescence / TAG accumulation response” value with Scenedesmus WC-1 (50 mM bicarbonate added post-nitrate depletion (stationary phase), aeration adjusted to ambient air, listed as NaHCO3) was “complete loss of cellular TAG accumulation”. For the same molecule, in the experiment on Scenedesmus WC-1 (25 and 50 mM added to unbuffered medium near nitrate depletion (FIG. 15)), the TAG accumulation result was “induce similar levels of TAG”. Moreover, the “total Nile Red fluorescence reached” value with Scenedesmus WC-1 (Example 4: 50 mM bicarbonate spike at 3.7 d, value 4 days later) was 20,000 units. Besides, the “total Nile Red fluorescence reached” value in the experiment with Scenedesmus WC-1 (Example 5: 50 mM bicarbonate addition at 3.7 d, value 3 days later) was 33,500 units. Further, in the experiment on Scenedesmus WC-1 (setting [2]), the “Dry Weight (DCW)” value came out at 1.1 ± 0.1 g/L, the “Final Cell Density” value is 1.34 ± 0.15 ×10^7 cells mL^−1, the “Final Total Nile Red Fluorescence” value is given as 33.5 ± 6.3 ×10^3 units and the “Final Specific Nile Red Intensity Cell-1” value came to 24.8 ± 2.2. In addition, in the experiment on Scenedesmus WC-1 (setting [3]), the “Dry Weight (DCW)” value stood at 2.1 ± 0.0 g/L, the “Final Cell Density” value is 5.18 ± 0.41 ×10^7 cells mL^−1, the “Final Total Nile Red Fluorescence” value is recorded as 0.3 ± 0.3 ×10^3 units and the “Final Specific Nile Red Intensity Cell-1” value is given as 0.1 ± 0.1. Further, the “minimal concentration range needed to stop cellular replication” value in the experiment on Scenedesmus WC-1 (addition just prior to medium nitrate depletion) was in the range of 10 to 15 mM. For the same molecule, the “culture time at which maximum total Nile Red fluorescence was reached” value with Scenedesmus WC-1 (bicarbonate supplemented culture, instead of 16-18 d in ambient aerated culture) came out at 8 days. Besides, in the experiment with Scenedesmus WC-1 (less than 10 mM NaHCO3 addition), the “cell morphology by microscope” value was “did not indicate cell cycle halting characteristics”. Besides, in the experiment with Scenedesmus WC-1 (when bicarbonate was added (50 mM, near nitrate depletion), versus ambient aerated culture), the “rate of TAG accumulation” value is “twice as fast”. Further, the “time to reach maximum Nile Red fluorescence signal” value in the experiment on Scenedesmus WC-1 (with bicarbonate spike, compared with 8-10 d under ambient air aeration with no spike) fell in the range of 3 to 4 days. In addition, the “total Nile Red fluorescence increase over the no spike control” value in the experiment with diatom RGd-1 is recorded as 10 fold. In the experiment with Coelastrella sp. PC-3, the “TAG accumulation measured with Nile Red fluorescence” value was “no observable increase in TAG accumulation” and the “effect on cellular replication” value is reported as “cellular replication ceased”. For the same molecule, the TAG accumulation rate entry in the experiment with Kirchneriella sp. 92 is recorded as “decrease in TAG accumulation rate”. Moreover, in the experiment on Scenedesmus sp. 131, the TAG accumulation rate entry is “increase in TAG accumulation rate”. Also, in experiment [1], the “Dry Weight (DCW)” value was 0.1 ± 0.0 g/L; the “Final Cell Density” value is 0.65 ± 0.01 ×10^7 cells mL^−1 and 1.02 ± 0.05 ×10^7 cells mL^−1; the “effect on cell replication” value is “cell replication was not inhibited”; the “lipid production (Nile Red fluorescence)” value is given as “stimulated more lipid production”. For the same molecule, in the experiment on Chlorophyta sp. EN-2, the TAG accumulation rate result was “observable increase” and the “TAG per cell level (Nile Red specific fluorescence)” value was “observable increase”.

The values above are taken from US9096875B2 (Montana State University, priority 2010, dated 2015).
